According to PubChem BioAssay (NCI):
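Cells were grown in 96-well plates and exposed to each compound for 48 hours at five concentrations; endpoints were interpolated linearly between bracketing concentrations, or set to the highest concentration if not reached. Definition used: TGI = concentration required for complete inhibition of growth.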

Key:
Assay in all cases: NCI-60 cell line screen, 48 h
[1] = system: RPMI-8226 leukemia
[2] = system: UACC-257 melanoma
[3] = system: TK-10 renal
[4] = system: SK-MEL-2 melanoma
[5] = system: SF-295 CNS
[6] = system: OVCAR-4 ovarian
[7] = system: 786-0 renal
[8] = system: SK-MEL-28 melanoma
[9] = system: OVCAR-5 ovarian
[10] = system: MDA-MB-435
[11] = system: PC-3 prostate
[12] = system: SF-268 CNS
[13] = system: HCT-116 colon
[14] = system: HS 578T breast
[15] = system: OVCAR-3 ovarian
[16] = system: A498 renal
[17] = system: SW-620 colon
[18] = system: HCC-2998 colon
[19] = system: T-47D breast
[20] = system: A549 NSCLC
[21] = system: NCI-H226 lung
[22] = system: MDA-MB-231 breast
[23] = system: UACC-62 melanoma
[24] = system: K-562 leukemia
[25] = system: SK-OV-3 ovarian
[26] = system: NCI-H460 lung
[27] = system: ACHN renal
[28] = system: RXF 393 renal
[29] = system: DU-145 prostate
[30] = system: BT-549 breast
[31] = system: MDA-N
[32] = system: OVCAR-8 ovarian
[33] = system: SNB-19 CNS
[34] = system: NCI/ADR-RES ovarian
[35] = system: COLO 205 colon
[36] = system: KM12 colon
[37] = system: LOX IMVI melanoma
[38] = system: HCT-15 colon
[39] = system: MCF7 breast
[40] = system: NCI-H23 lung
[41] = system: SN12C renal
[42] = system: HOP-62 NSCLC
[43] = system: U251 CNS
[44] = system: UO-31 renal
[45] = system: SNB-75 CNS
[46] = system: M14 melanoma
[47] = system: CAKI-1 renal
[48] = system: MOLT-4 leukemia
[49] = system: EKVX NSCLC
[50] = system: CCRF-CEM leukemia
[51] = system: SF-539 CNS
[52] = system: HOP-92 NSCLC
[53] = system: IGROV1 ovarian
[54] = system: SK-MEL-5 melanoma
[55] = system: HT29 colon
[56] = system: NCI-H522 lung
[57] = system: HL-60(TB) leukemia
[58] = system: MALME-3M melanoma

Measured: TGI

CO[C@]12C#CC=CC#C[C@@H](O)[C@]3(CCC1)O[C@@]23c1cccc(O)c1
not listed: [49] | [50] | [51] | [52] | [53] | [54] | [55] | [56] | [57] | [58]
> 100 µM: all other assays above

COc1ccccc1C1(c2c(OC(C)C)c(=O)c2=O)SCCCS1
not listed: [1] | [18] | [24] | [58]
> 100 µM: all other assays above

CO/C=C(/C(=O)OC)c1ccccc1Oc1c(F)c(F)c(F)c(F)c1F
63.8 µM: [28]
88.2 µM: [3]
40.8 µM: [54]
92.9 µM: [16]
58.1 µM: [4]
85.4 µM: [6]
35.3 µM: [35]
97.7 µM: [53]
62.4 µM: [15]
66.5 µM: [47]
68.5 µM: [23]
30.4 µM: [48]
5.72 µM: [57]
86 µM: [14]
69.2 µM: [52]
82.7 µM: [2]
77.8 µM: [10]
41.2 µM: [1]
73.1 µM: [19]
98.5 µM: [50]
56 µM: [13]
not listed: [17] | [45] | [56] | [58]
> 100 µM: all other assays above

COC(=O)[C@H](Cc1c[nH]c2ccccc12)NC(=O)OCC1OC(n2cc(C)c(=O)[nH]c2=O)CC1N=[N+]=[N-] (stereo not given in full)
not listed: [8] | [16] | [51]
> 100 µM: all other assays above

O=C(O)c1cccc(CN2CCCCC2)c1
not listed: [45] | [51] | [52] | [57]
> 100 µM: all other assays above
